Test results: patent US20230027295A1, “FXIA INHIBITORS AND PREPARATION METHOD THEREFOR AND PHARMACEUTICAL USE THEREOF” (Shenzhen Salubris Pharmaceuticals Co., Ltd., priority 2019, published 2023)
pIC50: −log10 of the molar value.

What was measured:
[1] = Beagle dog pharmacokinetics; assay type: in vivo; conditions: for AUC / Cmax / Tmax / clearance / half-life / Vd: male, plasma; for Vd: read-out: Vss
Excerpt: Example 53: Investigation of the Pharmacokinetic Characteristics of the Compounds of the Present Invention
SD rats: male, 180-250 g, purchased from Guangdong Medical Laboratory Animal Center. Cynomolgus monkey: male, 4-6 kg, purchased from Guangzhou Chunsheng Biological Research Institute Co., Ltd. Beagle dog: male, 8-12 kg, developed in Kanglong Chemical (Ningbo) New Drug Technology Co., Ltd.
Reagents: DMSO (dimethyl sulfoxide), PEG-400 (polyethylene glycol 400), normal brine, heparin, acetonitrile, formic acid, and propranolol (internal standard) are commercially available.
Instrumentation: Thermo Fisher Scientific LC-MS (U300 UPLC, TSQ […] ULTRA triple quadrupole mass spectrometer).
The compound was weighed and dissolved in DMSO-PEG-400-physiological brine (5:60:35, v/v/v) system. After the rats/monkeys were administered intravenously or by gavage, 200 μL of venous blood was collected at 5 min (not collected when administered by gavage), 15 min, 30 min, 1 h, 2 h, 4 h, 6 h, 8 h, and 24 h in heparinized EP tubes, centrifuged at 12000 rpm for 2 min, and the plasma was frozen at −80° C. for testing. A certain amount of the test substance was precisely weighed and dissolved in DMSO to 1 mg/mL, which was used as a stock solution. An appropriate amount of compound stock solution was accurately pipetted and diluted with acetonitrile to prepare a standard series of solutions. 20 μL of each of the above standard series solutions were accurately pipetted, added with 180 μL of blank plasma, vortexed and mixed to prepare plasma samples equivalent to plasma concentrations of 1, 3, 10, 30, 100, 300, 1000, 3000 and 5000 ng/mL. Two-sample analysis was performed for each concentration to establish a standard curve. 20 μL of plasma was taken out, added with 200 μL of internal standard propranolol (5 ng/mL) in acetonitrile, vortexed and mixed. It was centrifuged at 4000 rpm for 5 min, and the supernatant was collected for LC-MS analysis. LC-MS detection conditions were as follows:
Chromatographic column: Thermo Scientific […] GOLD C-18 UPLC column, 100*2.1 mm, 1.9 μm.
Mobile phase: water (0.1% formic acid)-acetonitrile for gradient elution according to the table below.
After blood drug concentrations being detected by LC-MS, WinNonlin 6.1 software was used to calculate pharmacokinetic parameters by non-compartmental model method.

Caco-2 permeability = assay type: in vitro ADME; conditions: human; for efflux ratio at 2 h: Caco-2, Papp(B-A)/Papp(A-B); for Papp A→B at 2 h / Papp B→A at 2 h: Caco-2 monolayer, 2h incubation
Description: Example 54: Investigation of the Caco-2 Data of the Compounds of the Present Invention
Medium: DMEM (Corning), FBS (Corning), double antibody (Solarbio), 96-well HTS transwell plate (Corning), Caco-2 cells.
Experimental method: Caco-2 cells were cultured on 96-well HTS transwell plate for 14-18 days, and the TEER value of each well was detected to ensure that the cells in each well formed a complete monolayer. Drug was added and it was incubated for 2h to detect the drug concentrations of A-B and B-A.
Data processing: PappA-B and PappB-A values were calculated: Papp=(VA×[drug]acceptor)/(Area×Time×[drug]initial, donor); Efflux Ratio was calculated: Efflux Ratio=Papp(B-A)/Papp(A-B).

hFIIa = target: T1, hFIIa (Homo sapiens, UniProt P00734); assay: Selectivity to coagulation factors: hFIIa (substrate S-2238); assay type: biochemical
T1 construct: purchased HT5146L
Description: Example 52: Investigation of the Selectivity of the Compounds of the Present Invention to Coagulation Factors
Enzyme: hFXa: Human Factor Xa: 71nkat. hFIIa: HT5146L. hFVIIa: Human Factor VIIa: hFVIIa 4591L. kallikrein: LOT180223.
10 mM test compound dissolved in 100% DMSO was diluted with 100% DMSO to 1000, 200, 40, 8, 1.6 μM. 98 μL of enzyme solution was added to each well of a 96-well plate, while 98 μL of buffer was added to the blank wells. 2 μL of compounds of different concentrations were added, while the blank and control wells were added with DMSO instead. They were mixed with a shaker, and incubated at 37° C. for 20 min.
The concentrations of hFXa and S-2222™ were FXa (1:28) and 800 μmol/L, respectively. The concentrations of hFIIa and S-2238™ were hFIIa (0.06 U/ml) and 500 μmol/L, respectively. The concentrations of hFVIIa and S-2288™ were hFVIIa (80 nM) and 1600 μmol/L, respectively. The concentrations of kallikrein and substrate were kallikrein (20 nM) and 1600 μmol/L, respectively.
Finally, 100 μL substrate was added to each well, and its absorbance was measured at 405 nm.

human plasma = assay: Anticoagulant effect on human plasma in vitro (APTT determination); assay type: biochemical; conditions: for aPTT EC1.5×: concentration giving APTT of 1.5× blank control; for aPTT EC2×: concentration giving APTT of 2× blank control
Description: Example 51: Determination of the Anticoagulant Effect of the Compounds of the Present Invention on Human Plasma In Vitro
Plasma: Human blood was collected in a vacuum blood collection tube containing 3.2% sodium citrate (volume ratio 1:9), centrifuged at 3000 rpm for 10 min at room temperature, and the plasma was collected, divided into EP tubes, and stored at −80° C.
Reagents: APTT assay kit (Activated partial thromboplastin time assay kit, mindray), calcium chloride solution.
Instrument: coagulation meter (mindray, C2000-A)
The frozen human plasma in aliquots was thawed at room temperature and mixed well. 10 mM test compound dissolved in 100% DMSO was diluted with 100% DMSO to 1500, 750, 375, 187.5, 93.75, 46.88, 23.44, 11.72 μM. 98 μL of human plasma was added to a 1.5 mL EP tube, then 2 μL of compounds of different concentrations were added, and 2 μL of 100% DMSO was added for the blank group. They were incubated under a water bath at 37° C. for 10 min, and the samples were placed in the corresponding position of the coagulation analyzer to conduct APTT determination of the compounds.
Curve fitting was performed with GraphPad Prism software, and EC1.5× and EC2× values were calculated respectively, i.e., the concentrations of the compounds corresponding to the APTT of 1.5× and 2× blank control group.

SMILES	F ([1]; ig)	AUC ([1]; iv)	Cmax ([1]; iv)	Tmax ([1]; iv)	clearance ([1]; iv)	half-life ([1]; iv)	Vd ([1]; iv)	AUC ([1]; po, ig)	Cmax ([1]; po, ig)	Tmax ([1]; po, ig)	half-life ([1]; po, ig)	efflux ratio at 2 h (Caco-2 permeability)	Papp A→B at 2 h (Caco-2 permeability)	Papp B→A at 2 h (Caco-2 permeability)	pIC50 (hFIIa)	aPTT EC1.5× (human plasma)	aPTT EC2× (human plasma)
COc1nn([C@@H](Cc2ccccc2)C(=O)Nc2ccc(C(=O)O)cc2)c(=O)cc1-c1cc(Cl)ccc1C(C)=O [Example 19, (S)-4-(2-(4-(2-acetyl-5-chlorophenyl)-3-methoxy-6-oxopyridazin-1(6H)-yl)-3-phenylpropanamido)benzoic acid]	65.5%	1410 ng·h/mL	2580 ng/mL	4.98 min	11.8 mL/min/kg	252 min	0.8 L/kg	9230 ng·h/mL	2320 ng/mL	75 min	216 min	16.3	1.54 ×10⁻⁶ cm/s	25.1 ×10⁻⁶ cm/s	< 4.00	0.641 µM	2.817 µM
CCC(=O)c1ccc(Cl)cc1-c1cc(=O)n([C@@H](Cc2ccccc2)C(=O)Nc2ccc(C(=O)O)cc2)nc1OC [Example 32]	49.6%	756 ng·h/mL	2190 ng/mL	4.98 min	22.7 mL/min/kg	466 min	2.64 L/kg	3770 ng·h/mL	1600 ng/mL	15 min	271 min	18.3	1.2 ×10⁻⁶ cm/s	21.9 ×10⁻⁶ cm/s	< 4.00	0.483 µM	1.319 µM
